# Data reported in patent US7998978B2 (Pfizer Inc., priority 2006, dated 2011).
# Target: T1, JNK1α1 (Homo sapiens, UniProt P45983)
# T1 construct: catalytic domain containing amino acids 1-364 and N-terminal hexahistidine tag; hexahistidine (His6) (N); made in house; host or cells: E. coli BL21 (DE3)
# Assay: Coupled spectrophotometric (PK/LDH) JNK1α1 assay: % inhibition and Ki determination
# Format: biochemical
# Details: @1 uM; read-out: % Inhibition JNK-1
# Method: % Inhibition and Ki Determination
# A coupled spectrophotometric assay, coupling JNK1α1 activity to the oxidation of β-NADH to NAD+ through the action of pyruvate kinase (PK) and lactic dehydrogenase (LDH), was used to determine the potency (percent inhibition at 1 or 10 μM or Ki) of compounds against JNK1α1 (Genbank Accession Number: L26318). […] The reaction was monitored by following the decrease in absorbance at 340 nm. The initial reaction rate was determined by the slope of the change in absorbance. To calculate percent inhibition the rate of the reaction in the presence of 1 or 10 μM compound was compared to the rate of the reaction with only DMSO multiplied by 100 percent. Note, the background rate of the above reaction in the presence of 10 μM PHA-00738186 was subtracted from all rates. […] Y=(−X+Eo−(Ki*(1+A/Km))+((X−Eo+(Ki*(1+A/Km)))^2+4*Eo*(Ki*(1+A/Km)))^0.5)*(Vm*A/(Km+A)/(2*Eo)) Formula: • Parameters: Eo, Ki, A, Km, Vo • Y is initial reaction velocity; • X is inhibitor concentration; • A is [ATP]; • Ki is inhibition constant; • Vm is Vmax; • Eo is total (initial) enzyme concentration; • Km is ATP Km;
# The compounds were prepared in 100% DMSO at a 40× concentration. For percent inhibition experiments this would be 400 or 40 μM for 10 and 1 μM final concentration, respectively. For the Ki determination 3× serial dilutions were made starting at 4 mM (100 μM at 1×) in DMSO. A total of 11 concentrations were used for the analysis. The compounds were added to the reaction plate first. Next, a solution containing the HEPES, MgCl2, DTT, peptide substrate, NADH, PEP, PK/LDH enzyme, and JNK1α1—364nHis enzyme was added to the assay plate. The plate was incubated at room temperature for 15 minutes. Then the plate was warmed to 30° C. for 5 minutes. The reaction was initiated with the addition of ATP. The reaction was run in a plate reader at 30° C. for 20 minutes with absorbance readings made about every 10 seconds.
# The column with “#” heading refers to compound number as exemplified in the Examples section. The column with “Ki” heading refers to Ki (in nM). The column with “% Inhibition” heading refers to percent inhibition of JNK-1 at 1 μM or 10 μM (in %) unless otherwise stated. ND refers to no data was taken.
# T1 sequence (P45983 1-364): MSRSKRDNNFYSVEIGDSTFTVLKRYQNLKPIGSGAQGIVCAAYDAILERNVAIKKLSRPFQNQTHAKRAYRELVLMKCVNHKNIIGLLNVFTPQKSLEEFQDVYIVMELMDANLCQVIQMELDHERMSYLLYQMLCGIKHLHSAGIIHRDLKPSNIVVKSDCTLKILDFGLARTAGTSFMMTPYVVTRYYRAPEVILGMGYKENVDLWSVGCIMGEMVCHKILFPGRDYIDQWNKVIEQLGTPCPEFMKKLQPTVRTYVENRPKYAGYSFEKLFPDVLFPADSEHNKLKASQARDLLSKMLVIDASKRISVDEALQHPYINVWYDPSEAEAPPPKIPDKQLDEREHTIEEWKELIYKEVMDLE
row,inhibition at 1 µM,SMILES
1,9%,"CC(=O)N1CCC(NC(=O)c2cccc3cnc(N[C@H]4CC[C@H](O)CC4)nc23)CC1 [Example 519, N-(1-acetylpiperidin-4-yl)-2-[(trans-4-hydroxycyclohexyl)amino]quinazoline-8-carboxamide]"
2,54%,"O[C@H]1CC[C@H](Nc2ncc3ccc(OC4CCC(F)(F)CC4)cc3n2)CC1 [Example 279, trans-4-({7-[(4,4-difluorocyclohexyl)oxy]quinazolin-2-yl}amino)cyclohexanol]"
3,27%,"CN(C)c1ncccc1NC(=O)c1cccc2cnc(N[C@H]3CC[C@H](O)CC3)nc12 [Example 319, N-[2-(dimethylamino)pyridin-3-yl]-2-[(trans-4-hydroxycyclohexyl)amino]quinazoline-8-carboxamide]"
4,19%,"CN(C)C(C)(C)COc1cccc2cnc(N[C@H]3CC[C@H](O)CC3)nc12 [Example 251, trans-4-({8-[2-(dimethylamino)-2-methylpropoxy]quinazolin-2-yl}amino)cyclohexanol]"
5,19%,"O=C(N[C@@H](CO)c1ccccc1)c1cccc2cnc(N[C@H]3CC[C@H](O)CC3)nc12 [Example 471, 2-[(trans-4-hydroxycyclohexyl)amino]-N-[(1R)-2-hydroxy-1-phenylethyl]quinazoline-8-carboxamide]"
6,10%,"O=C(NCCc1ccccn1)c1cccc2cnc(N[C@H]3CC[C@H](O)CC3)nc12 [Example 469, 2-[(trans-4-hydroxycyclohexyl)amino]-N-(2-pyridin-2-ylethyl)quinazoline-8-carboxamide]"
7,18%,"CC1CN(CCOc2cccc3cnc(N[C@H]4CC[C@H](O)CC4)nc23)CC(C)O1 (stereo partly drawn) [Example 267, trans-4-({8-[2-(2,6-dimethylmorpholin-4-yl)ethoxy]quinazolin-2-yl}amino)cyclohexanol]"

# Same assay, conditions: @10 uM; read-out: % Inhibition JNK-1
row,inhibition at 10 µM,SMILES
1,61%,"CN1CCC(Oc2cccc3cnc(N[C@H]4CC[C@H](O)CC4)nc23)C1 (stereo partly drawn) [Example 262, trans-4-({8-[(1-methylpyrrolidin-3-yl)oxy]quinazolin-2-yl}amino)cyclohexanol]"

# Same assay, conditions: JNK-1
row,Ki,SMILES
1,141 nM,"CC(C)(O)CNC(=O)c1cccc2cnc(N[C@H]3CC[C@H](NS(C)(=O)=O)CC3)nc12 [Example 130, N-(2-hydroxy-2-methylpropyl)-2-({trans-4-[(methylsulfonyl)amino]cyclohexyl}amino)quinazoline-8-carboxamide]"
2,11500 nM,"CCN(CC)CCN1CCC(Nc2cc3cc(-c4cn[nH]c4)ccc3cn2)CCC1=O (stereo not drawn) [Example 228, 1-[2-(diethylamino)ethyl]-5-{[6-(1H-pyrazol-4-yl)isoquinolin-3-yl]amino}azepan-2-one]"
3,337 nM,"O[C@H]1CC[C@H](Nc2ncc3ccc(F)cc3n2)CC1 [Example 143, trans-4-[(7-fluoroquinazolin-2-yl)amino]cyclohexanol]"
4,303 nM,"CC[C@@H](CO)NC(=O)c1ccc2cnc(NC3CCCCC3)nc2c1 [Example 388, 2-(cyctohexylamino)-N-[(1S)-1-(hydroxymethyl)propyl]quinazoline-7-carboxamide]"
5,5160 nM,"c1ccc(-c2nc(CNc3cc4cc(-c5cn[nH]c5)ccc4cn3)c[nH]2)cc1 [Example 225, N-[(2-phenyl-1H-imidazol-4-yl)methyl]-6-(1H-pyrazol-4-yl)isoquinolin-3-amine]"
6,743 nM,"O=C(N[C@H](CO)Cc1ccccc1)c1ccc2cnc(NC3CCCC3)nc2c1 [Example 408, N-[(1S)-1-benzyl-2-hydroxyethyl]-2-(cyclopentylamino)quinazoline-7-carboxamide]"
7,1060 nM,"CC(O)CNC(=O)c1ccc2cnc(N[C@H]3CC[C@H](O)CC3)nc2c1 (stereo partly drawn) [Example 351, 2-[(trans-4-hydroxycyclohexyl)amino]-N-(2-hydroxypropyl)quinazoline-7-carboxamide]"
8,247 nM,"CC(C)NC(=O)c1ccc2cnc(N[C@H]3CC[C@H](O)CC3)nc2c1 [Example 83, 2-[(trans-4-hydroxycyclohexyl)amino]-N-isopropylquinazoline-7-carboxamide]"
9,2060 nM,"CC(=O)N1CCC(NC(=O)c2ccc3cnc(N[C@H]4CC[C@H](O)CC4)nc3c2)CC1 [Example 365, N-(1-acetylpiperidin-4-yl)-2-[(trans-4-hydroxycyclohexyl)amino]quinazoline-7-carboxamide]"
10,2290 nM,"CN(C)C(=O)CNC(=O)c1ccc2cnc(N[C@H]3CC[C@H](O)CC3)nc2c1 [Example 368, N-[2-(dimethylamino)-2-oxoethyl]-2-[(trans-4-hydroxycyclohexyl)amino]quinazoline-7-carboxamide]"
11,775 nM,"CC(=O)NC1CCC(Nc2cc3cc(-c4cn[nH]c4)ccc3cn2)CC1 (stereo not drawn) [Example 217, N-(4-{[6-(1H-pyrazol-4-yl)isoquinolin-3-yl]amino}cyclohexyl)acetamide]"
12,570 nM,"CCC(=O)N[C@H]1CC[C@H](Nc2ncc3cccc(OC4CCOCC4)c3n2)CC1 [Example 180, N-(trans-4-{[8-(tetrahydro-2H-pyran-4-yloxy)quinazolin-2-yl]amino}cyclohexyl)propanamide]"
13,70 nM,"CN(C)CCOc1ccc(-c2cccc3cnc(N[C@H]4CC[C@H](O)CC4)nc23)cc1 [Example 201, trans-4-[(8-{4-[2-(dimethylamino)ethoxy]phenyl}quinazolin-2-yl)amino]cyclohexanol]"
14,2180 nM,"O=C(NCCN1CCCC1=O)c1ccc2cnc(N[C@H]3CC[C@H](O)CC3)nc2c1 [Example 367, 2-[(trans-4-hydroxycyclohexyl)amino]-N-[2-(2-oxopyrrolidin-1-yl)ethyl]quinazoline-7-carboxamide]"
15,1310 nM,"CC[C@H](C)[C@@H](CO)NC(=O)c1ccc2cnc(NC3CCC3)nc2c1 [Example 414, 2-(cyclobutylamino)-N-[(1S,2S)-1-(hydroxymethyl)-2-methylbutyl]quinazoline-7-carboxamide]"
16,8 nM,CC(C)(C)OC(=O)N1C[C@H](C(=O)Nc2cc3cc(-c4cn[nH]c4)ccc3cn2)[C@@H](c2ccccc2)C1 [Example 36]
17,2470 nM,"O=C(NCCN1CCCCC1=O)c1ccc2cnc(N[C@H]3CC[C@H](O)CC3)nc2c1 [Example 370, 2-[(trans-4-hydroxycyclohexyl)amino]-N-(2-(2-oxopiperidin-1-yl)ethyl]quinazoline-7-carboxamide]"
18,147 nM,"C[C@@H](O)CNC(=O)c1cccc2cnc(N[C@H]3CC[C@H](O)CC3)nc12 [Example 120, 2-[(trans-4-hydroxycyclohexyl)amino]-N-[(2R)-2-hydroxypropyl]quinazoline-8-carboxamide]"
19,1990 nM,"CCOC(=O)N1CC[C@@H](NC(=O)c2ccc3cnc(N[C@H]4CC[C@H](O)CC4)nc3c2)C1 [Example 364, ethyl 3-[({2-[(trans-4-hydroxycyclohexyl)amino]quinazolin-7-yl}carbonyl)amino]pyrrolidine-1-carboxylate]"
20,185 nM,"O[C@H]1CC[C@H](Nc2ncc3ccc(OCc4ccccn4)cc3n2)CC1 [Example 153, trans-4-{[7-(pyridin-2-ylmethoxy)quinazolin-2-yl]amino}cyclohexanol]"
21,60 nM,"C[C@@H](NC(=O)c1ccc2cnc(N[C@H]3CC[C@H](O)CC3)nc2c1)c1ccccc1 [Example 87, 2-[(trans-4-hydroxycyclohexyl)amino]-N-[(1R)-1-phenylethyl]quinazoline-7-carboxamide]"
22,8 nM,"O=C(COc1cccc(-c2cnccn2)c1)Nc1cc2cc(-c3cn[nH]c3)ccc2cn1 [Example 32, 2-(3-pyrazin-2-ylphenoxy)-N-[6-(1H-pyrazol-4-yl)isoquinolin-3-yl]acetamide]"
23,292 nM,"O=C(NC1CCS(=O)(=O)C1)c1ccc2cnc(N[C@H]3CC[C@H](O)CC3)nc2c1 (stereo partly drawn) [Example 79, N-(1,1-dioxidotetrahydro-3-thienyl)-2-[(trans-4-hydroxycyclohexyl)amino]quinazoline-7-carboxamide]"
24,> 10000 nM,"O=C(c1cccc2cnc(N[C@H]3CC[C@H](O)CC3)nc12)N1CCC(O)C1 (stereo partly drawn) [Example 112, 1-({2-[(trans-4-hydroxycyclohexyl)amino]quinazolin-8-yl}carbonyl)pyrrolidin-3-ol]"
25,978 nM,"O=C(NCC1CCCCO1)c1ccc2cnc(N[C@H]3CC[C@H](O)CC3)nc2c1 (stereo partly drawn) [Example 348, 2-[(trans-4-hydroxycyclohexyl)amino]-N-(tetrahydro-2H-pyran-2-ylmethyl)quinazoline-7-carboxamide]"
